Structures can show the parent of a compound that is named as a salt.
Test system: benzodiazepine site of GABAA
Assay: Binding assay, benzodiazepine site of GABAA (binding assay 1: rat brain, (3H)-flunitrazepam; binding assay 2: bovine hippocampal membranes, [3H]-RY80)
Details: radioligand binding; for % Inhibition at 10 μM: 10 μM test compound; for % Inhibition at 0.1 μM: 0.1 μM test compound
Procedure: The ability of a compound disclosed herein to act as ligand to the benzodiazepine site of GABAA can be determined using pharmacological models which are well known in the art using the following assay.
Binding assay 1: Whole brain (except cerebellum) of male Wistar derived rats weighing 175±25 g were used to prepare GABAA central benzodiazepine receptor in Na—K phosphate buffer pH 7.4. A 5 mg aliquot was incubated with 1 nM (^3H)-flunitrazepam for 60 minutes at 25° C. Experiments were performed in the presence or absence of 30 μM of GABA. Non-specific binding was estimated in the presence of 10 μM of diazepam. Membranes were filtered and washed, the filters were then counted to determine (^3H)-flunitrazepam specifically bound. Test compounds were tested in duplicate according to the required concentrations (Damm, H. W., et al. (1978) Res. Comm. Chem. Pathol. Pharmacol. 22: 597-560 incorporated herein in its entirety; Speth, R. C., et al. (1979) Life Sci. 24: 351-357 incorporated herein in its entirety).
Receptor Source: Bovine hippocampal membranes
Radioligand: [3H]-RY80 (40-80 Ci/mmol)
Final ligand concentration—[0.8 nM]
Non-specific Determinant: L-655,708—[0.5 μM]
Binding assay 2 followed procedures based on Li and Szabo (Li M., Szabo A., Rosenberg H. Evaluation of native GABAA receptors containing an α5 subunit. Eur. J. Pharmacol. 413: 63-72 (2001)). Incubation Conditions: Reactions are carried out in 50 mM Tris-Citrate (pH 7.8) containing 200 mM NaCl at 0-4° C. for 60 minutes. The reaction is terminated by rapid vacuum filtration onto glass fiber filters. Radioactivity trapped onto the filters is determined and compared to control values in order to ascertain any interactions of test compound with the benzodiazepine (central) binding site.

| SMILES | % Inhibition at 10 μM | % Inhibition at 0.1 μM |
| --- | --- | --- |
| CNC(=O)n1ncc2c3nn(-c4ccc(C(F)(F)F)cc4)c(=O)c-3c[nH]c21 [Compound 6ag, N-methyl-3-oxo-2-(4-(trifluoromethyl)phenyl)-2,3-dihydrodipyrazolo[3,4-b:3′,4′-d]pyridine-6(5H)-carboxamide] | B (B indicates % inhibition <80% and >20%) | – |
| CCCCNC(=O)n1ncc2c3nn(-c4cccc(Cl)c4)c(=O)c-3c[nH]c21 [Compound 6ac, N-butyl-2-(3-chlorophenyl)-3-oxo-2,3-dihydrodipyrazolo[3,4-b:3′,4′-d]pyridine-6(5H)-carboxamide] | A (A indicates % inhibition >80%) | – |
| CNC(=O)n1ncc2c3nn(-c4ccc(Cl)cn4)c(=O)c-3c[nH]c21 [Compound 6ax, 2-(5-chloropyridin-2-yl)-N-methyl-3-oxo-2,3-dihydrodipyrazolo[3,4-b:3′,4′-d]pyridine-6(5H)-carboxamide] | A (A indicates % inhibition >80%) | – |
| CCNC(=S)n1ncc2c3nn(-c4ccc(C(C)C)cc4)c(=O)c-3c[nH]c21 [Compound 6au, N-ethyl-2-(4-isopropylphenyl)-3-oxo-2,3-dihydrodipyrazolo[3,4-b:3′,4′-d]pyridine-6(5H)-carbothioamide] | A (A indicates % inhibition >80%) | B (B indicates % inhibition <80% and >20%) |
| CC(C)NC(=O)n1ncc2c3nn(-c4ccc(Cl)cc4)c(=O)c-3c[nH]c21 [Compound 6p, 2-(4-chlorophenyl)-N-isopropyl-3-oxo-2,3-dihydrodipyrazolo[3,4-b:3′,4′-d]pyridine-6(5H)-carboxamide] | C (C indicates % inhibition <20%) | C (C indicates % inhibition <20%) |
| CN(C)C(=O)n1ncc2c3nn(-c4ccccc4)c(=O)c-3c[nH]c21 [Compound 7c, N,N-dimethyl-3-oxo-2-phenyl-2,3-dihydrodipyrazolo[3,4-b:3′,4′-d]pyridine-6(5H)-carboxamide. TFA] | B (B indicates % inhibition <80% and >20%) | – |
| CC(C)NC(=O)n1ncc2c3nn(-c4ccccc4)c(=O)c-3c[nH]c21 [Compound 6a, N-isopropyl-3-oxo-2-phenyl-2,3-dihydrodipyrazolo[3,4-b:3′,4′-d]pyridine-6(5H)-carboxamide] | B (B indicates % inhibition <80% and >20%) | C (C indicates % inhibition <20%) |
| CCNC(=O)n1ccc2c3nn(-c4ccc(Cl)cn4)c(=O)c-3c[nH]c21 [Compound 17f, 2-(5-Chloropyridin-2-yl)-N-ethyl-3-oxo-2,3-dihydropyrazolo[3,4-d]pyrrolo[2,3-b]pyridine-6(5H)-carboxamide] | B (B indicates % inhibition <80% and >20%) | – |
| CC(C)NC(=O)n1ncc2c3nn(-c4cc(C(F)(F)F)cc(C(F)(F)F)c4)c(=O)c-3c[nH]c21 [Compound 6r, 2-(3,5-bis(trifluoromethyl)phenyl)-N-isopropyl-3-oxo-2,3-dihydrodipyrazolo[3,4-b:3′,4′-d]pyridine-6(5H)-carboxamide] | B (B indicates % inhibition <80% and >20%) | – |
| CCNC(=O)n1ncc2c3nn(-c4ccc(F)cc4F)c(=O)c-3c[nH]c21 [Compound 6ao, 2-(2,4-difluorophenyl)-N-ethyl-3-oxo-2,3-dihydrodipyrazolo[3,4-b:3′,4′-d]pyridine-6(5H)-carboxamide] | A (A indicates % inhibition >80%) | B (B indicates % inhibition <80% and >20%) |
| CCNC(=S)n1ccc2c3nn(-c4ccccc4)c(=O)c-3c[nH]c21 [Compound 17e, N-ethyl-3-oxo-2-phenyl-2,3-dihydropyrazolo[3,4-d]pyrrolo[2,3-b]pyridine-6(5H)-carbothioamide] | B (B indicates % inhibition <80% and >20%) | – |
| O=C(N1CCCC1)n1ncc2c3nn(-c4ccccc4)c(=O)c-3c[nH]c21 [Compound 6k, 2-phenyl-6-(pyrrolidine-1-carbonyl)-5,6-dihydrodipyrazolo[3,4-b:3′,4′-d]pyridin-3(2H)-one] | C (C indicates % inhibition <20%) | C (C indicates % inhibition <20%) |
| CC(C)CNC(=O)n1ncc2c3nn(-c4ccccc4)c(=O)c-3c[nH]c21 [Compound 6e, N-isobutyl-3-oxo-2-phenyl-2,3-dihydrodipyrazolo[3,4-b:3′,4′-d]pyridine-6(5H)-carboxamide] | A (A indicates % inhibition >80%) | C (C indicates % inhibition <20%) |
| CCNC(=O)n1ncc2c3nn(-c4ccc(Cl)c(C(F)(F)F)c4)c(=O)c-3c[nH]c21 [Compound 6s, 2-(4-chloro-3-(trifluoromethyl)phenyl)-N-ethyl-3-oxo-2,3-dihydrodipyrazolo[3,4-b:3′,4′-d]pyridine-6(5H)-carboxamide] | B (B indicates % inhibition <80% and >20%) | – |
| CCNC(=O)n1ncc2c3nn(-c4ccccc4F)c(=O)c-3c[nH]c21 | A (A indicates % inhibition >80%) | B (B indicates % inhibition <80% and >20%) |
| CC(C)NC(=O)n1ncc2c3nn(-c4ccc(Cl)cn4)c(=O)c-3c[nH]c21 [Compound 6aw, 2-(5-chloropyridin-2-yl)-N-isopropyl-3-oxo-2,3-dihydrodipyrazolo[3,4-b:3′,4′-d]pyridine-6(5H)-carboxamide] | B (B indicates % inhibition <80% and >20%) | – |
| CC(C)NC(=O)n1cc2[nH]cc3c(=O)n(-c4ccccc4)nc-3c2c1 [Compound 13j, N-Isopropyl-3-oxo-2-phenyl-2,3-dihydropyrazolo[3,4-d]pyrrolo[3,4-b]pyridine-7(5H)-carboxamide] | A (A indicates % inhibition >80%) | B (B indicates % inhibition <80% and >20%) |
| CC(C)NC(=O)n1ncc2c3nn(-c4ccc(C(F)(F)F)cc4)c(=O)c-3c[nH]c21 [Compound 6af, N-isopropyl-3-oxo-2-(4-(trifluoromethyl)phenyl)-2,3-dihydrodipyrazolo[3,4-b:3′,4′-d]pyridine-6(5H)-carboxamide] | B (B indicates % inhibition <80% and >20%) | – |
| CCNC(=O)n1ncc2c3nn(-c4cc(C(F)(F)F)cc(C(F)(F)F)c4)c(=O)c-3c[nH]c21 [Compound 6q, 2-(3,5-bis(trifluoromethyl)phenyl)-N-ethyl-3-oxo-2,3-dihydrodipyrazolo[3,4-b:3′,4′-d]pyridine-6(5H)-carboxamide] | C (C indicates % inhibition <20%) | – |
| CC(C)NC(=O)n1ncc2c3nn(-c4ccc(C(C)C)cc4)c(=O)c-3c[nH]c21 [Compound 6aa, N-isopropyl-2-(4-isopropylphenyl)-3-oxo-2,3-dihydrodipyrazolo[3,4-b:3′,4′-d]pyridine-6(5H)-carboxamide] | B (B indicates % inhibition <80% and >20%) | – |

Reference: US9012470B2 (Dart NeuroScience (Cayman) Ltd., priority 2010, dated 2015)
